The results in this text go back to patent publication US20220160703A1, “TUMOR-SELECTIVE COMBINATION THERAPY” (The Board of Regents of The University of Texas System, priority 2019, published 2022).

The term TGI denotes the reduction of tumour growth relative to the control group. Higher therefore signals a stronger effect on the tumour.

One test relates to HMGB1. As to the kind of experiment: HMGB1 release detection (ELISA). The settings on record: NQO1+ tumor cells (MC38, TC-1, NQO1-overexpressing B16), β-lap 3 hr, 24 hr later. Type of test: cell-based, murine. How it is done: FIGS. 5A-F. β-Lap treatment-induced HMGB1 release enhances tumor immunogenicity and triggers antitumor T cell immunity in vivo. (FIG. 5A) MC38, TC-1 and B16 (NQO null and overexpression clones) were treated with β-lap for 3 hr followed by washing and replacing medium. The level of HMGB1 released into the culture supernatant was determined by ELISA 24 hr later. (FIG. 5B) The research schema for in vivo cross-presentation of tumor specific antigen from β-lap-induced dying tumor cells in FIG. 5C and FIG. 5D. (FIGS. 5C-D) Live or β-lap-induced dying MC38-OVA cells were subcutaneously inoculated into the flank of WT or Tlr4^−/− C57BL/6 (n=3-4/group) mice along with or without anti-HMGB1 antibody. […] IFNγ producing cells were determined by ELISPOTs assay (FIG. 5C), and IFNγ secretion level was quantified by CBA mouse IFNγ assay (FIG. 5D). […] Data are shown as mean±SEM from at least two to three independent experiments. *P<0.05, **P<0.01, and ***P<0.001 determined by two-way ANOVA (FIG. 5C and FIG. 5D) or log-rank test (FIG. 5F).
FIGS. 25A-E. IB-DNQ induces tumor ICD and dendritic cell-mediated T cell cross-priming. […] MC38, MC38 NOQ1^−/−, B16, and B16 NOQ1^+ cells were treated with IB-DNQ for 4 h followed by replacing medium and growth for 24 h, culture supernatant was collected and HMGB1 levels were determined by ELISA. […]
For orientation: An ELISA detects its analyte on a solid surface through an enzyme-linked reagent.

Another test concerns B16 tumors. Kind of test: B16 (NQO1 null or NQO1 overexpressing) tumor model. Type of test: in vivo, mice.
In test [1] the test system is B16 cells stably harboring a pCMV-NQO1 expression vector. As to the kind of experiment: Cell survival of NQO1 overexpressing B16 cells. Format: cell-based, murine. The settings on record: 3 hr exposure, survival 48 hr later. How it is done:
(FIG. 1A) NQO1 positive tumor cell lines MC38, TC-1 and Ag104Ld and NQO1 negative cell lines Panc02 and B16 grown in 48-well plates were treated with β-lap (0-8 μM) for a 3 hr followed by washing and replacing medium. Cell viability was determined by Sulforhodamine B (SRB) Assay 4 days later. […] (FIG. 1C) MC38 cells with CRISPR-based NQO1 Knockout (MC38 NQO1KO #5) planted in 96-well plates were exposed to β-lap for 3 hr and cell survival was assessed 48 hr later. […] (FIG. 1E) MC38 cells were exposed to a lethal dose of β-lap (4 μM) for indicated times, then stained with 7-AAD and Annexin V followed by flow cytometry analysis. […] (FIG. 1H) MC38 and B16 NQO1 #1 cells were exposed to β-lap for a 3 hr. Catalase (1000 U/ml) was added and cell survival was assessed 48 hr later. […] Tumor growth was monitored twice a week.
FIGS. 17A-I (related to FIGS. 1A-J). […] (FIG. 17A) NQO1 expression in different murine cancer cell lines was determined by western blotting assay. […] Cell viability was determined by Sulforhodamine B (SRB) Assay 48 hr later. […] Cell viability was determined by SRB Assay 48 hr later. […] Catalase (1000 U/ml) was added and cell viability was assessed 48 hr later. […] Tumor growth was monitored twice a week. […] Data are shown as mean±SEM. **P<0.01, ***P<0.001, ****P<0.0001 determined by unpaired student t-test (FIG. 17G) or two-way ANOVA (FIG. 17H and FIG. 17I). […]

Consider `CC1(C)CCC2=C(O1)c1ccccc1C(=O)C2=O` [β-lap, β-lapachone], for which the HMGB1 secretion entry in the test with HMGB1 is listed as “dose-dependent secretion of HMGB1”. For the same molecule, the tumor response result was “didn't response” with B16 tumors (NQO1null parental B16, β-lap 0.3 mg i.t. four times); “dramatic tumor suppression” in the test with B16 tumors (NQO1 overexpressing B16 clone #1 and #4, β-lap 0.3 mg i.t. four times). The same molecule yielded a tumour growth inhibition (TGI) in the test on B16 tumors (NQO1 overexpressing B16 tumors (about 100 mm^3), β-lap 0.3 mg i.t. four times, anti-PD-L1 150 μg i.p. three times) of 68.67%. The “response to β-lap (cell survival)” value in test [1] is “sensitivity to β-lap”.
